# Results from patent publication US9068987B2, “Inhibitors of extracellular HSP90” (TRUSTEES OF TUFTS COLLEGE, priority 2003, dated 2015).
# B1: scFv1: single chain Fv antibody fragment from phage library of mice immunized with HT-1080 cells; SEQ ID NO: 1 (protein, listed as Mus sp.)
# scFv: QVQLKESGAELVKPGASVKLSCTASGFNIKDYYMHWVKQRTEQGLEWIGRIDPEDGETKYAPKFQGKATITADTSSNTAYLQLSSLTSEDTAVYYCARSYDYAMDYWGQGTTVTVSTGGGGSGGGGSGGGGSALQIVLTQSPALMSASPGEKVTMTCSASSSVSYMHWYQQKSGTSPKRWIYDTSKLASGVPARFSGSGSGTSYSLTISSMEAEDAATYYCQQWSSNPLTFGAGTKLELKAAAGAPVPYPDPLEPRGAASAWSHPQFEK
# Assays:
# HT-1080 cells [1] = test: In vitro invasion assay with geldanamycin or GA-beads (Example 8); assay type: cell-based, human; conditions: 10 μM for 1 hour; eliminated when activated MMP2 (100 ng) was added; data not shown
# MMP2 (72 kDa gelatinase) = test: Zymography of secreted MMP2 after geldanamycin treatment; assay type: cell-based, human; conditions: HT-1080 cells, 20 μM in serum-free media
# Method: HT-1080 cells were treated with 20 μM geldanamycin (GA) in serum-free media and assayed by zymography. MMP2 (72 kDa gelatinase) activity was decreased by ˜35% after GA treatment. Total protein content was visualized by silver staining to ensure equal loading.
# We then applied a known Hsp90 inhibitor, geldanamycin, to HT-1080 cells to test whether inhibition of Hsp90 reduced MMP2 activity. HT-1080 cells were treated with 20 μM geldanamycin (GA) in serum-free media and secreted MMP2 was assayed by zymography. MMP2 (72 kDa gelatinase) activity was decreased by ˜35%; p<0.01 after GA treatment. Total protein content in conditioned media was visualized by silver staining to ensure equal loading. (See, FIG. 18).
# [2] = system: matrix metalloprotease (MMP); test: Gelatin zymography of conditioned media (MMP secretion/activity); assay type: cell-based, human; conditions: 40,000 HT-1080 cells treated 6 hours
# Method: 40,000 HT-1080 cells were treated for 6 hours with novobiocin or nalidixic acid (as a control) at the given concentrations. […] Two bands (A and B) correspond to unidentified MMPs. (Image inverted for clarity.)
# 40,000 HT-1080 cells were treated for 6 hours with novobiocin or nalidixic acid at the given concentrations. The conditioned media from treated cells was separated using a SDS-PAGE gel containing 10 mg/mL gelantin. SDS was removed from the gel using 2.5% Triton-X-100 for 30 minutes at room temperature. Proteins were allowed to digest the gelatine in digestion buffer (0.1M […], pH 8.0, 5 mM CaCl2, 0.04% NaN3) for 48 hours at 37° C. Gels were coomassie-stained and dried for densitometry. Parallel gels were silver stained to show equal loading of protein (data not shown).
# HT-1080 cells [3] = test: Invasion assay after 1 hour pre-treatment with novobiocin or nalidixic acid; assay type: cell-based, human; conditions: cells pre-treated for 1 hour; normalized to no drug control; result in words
# Method: HT-1080 cells were pre-treated for 1 hour with novobiocin or nalidixic acid and an invasion assay was performed. […] Viability of cells in this assay was not affected (data not shown). Each data point is normalized to the no drug control and represents the mean.+−.s.e.m. of 2 experiments in triplicate.
# (§1) The ChemoTx® system (Neuro Probe Inc. #106-8, Gaithersburg) was used as a disposable chemotaxis/cell migration chamber in a 96 well format with an 8 μm filter Track etched Polycarbonate pore size, 5.7 mm diameter/site.
# (§2) 13.3 μl of 0.3 mg/ml Matrigel (see Example 8) diluted in cold Dulbeccos PBS (Gibco #14040-091) was applied on the membrane filter of the 96-well plate on row B-H and on row A0.3 μg/site of mouse collagen, type IV (Becton-Dickenson #354233) was diluted in 0.05 M HCL (Sigma #945-50) and was incubated over night at 20° C. in a desiccator for gelation, HT-1080 cells were grown to 70-80% confluence in DMEM supplemented with MEM non-essential amino acids (IX, Gibco #11140050) and Penicillin/Streptomycin (1×, Gibco #15140122) with 10% FBS (Hyclone #SH30070.03). […] After scraping the non-migrating cells from the top of the membrane (except the Standard curve on row A) fluorescence of cells, which had migrated through the membrane (not migrated in case of the Standard curve), was measured on the Tecan Spectrafluor Plus fluorescence plate reader (excitation: 544, emission: 590 nm). […]
# HT-1080 cells [4] = test: Viability of cells in the novobiocin invasion assay; assay type: cell-based, human; conditions: data not shown
# Method: 8×10^6 HT-1080 cells/mL were pretreated for 1 hour with novobiocin or nalidixic acid at the concentrations shown and an invasion assay was performed as described in Example 9.1. […] Viability of novobiocin-treated cells in this assay was not affected (data not shown). Each data point is normalized to the no drug control and represents the mean.+−.s.e.m. of 2 experiments in triplicate.
# HT-1080 cells [5] = test: Invasion assay with FITC-labelled antibodies and CALI (Example 9.1); assay type: cell-based, human; conditions: FITC-labelled antibody, 300 W blue-filtered light for one hour; result in words
# Method: Each bar is normalized to dark control and represents the mean.+−.s.e.m of at least 2 experiments in triplicate.
# as §1, §2
# HT-1080 cells [6] = test: Cell-matrix adhesion assay (Collagen S type I); assay type: cell-based, human; conditions: FITC labeled scFv, assay with CALI; data not shown
# Method: 96-well plates (TPP #9296) (cell culture treated) were coated in Row B-H with collagen S type I 1 μg/well (Roche #10982929) in Dulbeccos PBS (Gibco #14040-091) and in Row A well 10-12 were coated with 2% BSA (Sigma #A-7030)/Dulbeccos PBS at 4° C. over night. The plate was washed with Dulbeccos PBS, blocked Row B-H and Row A well 10-12 with 2% BSA/Dulbeccos PBS for 1 h at 37° C. and washed again with Dulbeccos PBS. […] Fluorescence of cells, which had adhered to the Collagen S type 1 (not adhered in case of the Standard curve), was measured on the Fluostar Galaxy (bMG) microplate reader using excitation/emission wavelengths of 370/460 nm. scFv1 inhibited the adhesion of HT-1080 cells to Collagen S type 1 by 50%. […]
# HT-1080 cells [7] = test: FACS analysis for tumor cell specific binding; set-up: species or system human; conditions: 10 μg/ml scFv; HT-1080 versus HS-27 control cells
# Method: The binding activity of scFv1 to HT-1080 cells (bold line) and to HS-27 cells (thin line) as control is illustrated.
# To test the ability of purified anti HT-1080 scFv to bind specifically to target cells, we performed a fluorescence-activated cell sorter (FACS) analysis using HT-1080 cells (ATCC CCL-121) and Hs-27 cells (10^6 cells/ml) as control cell line (see Figures). Cells were incubated with 10 μg/ml of pure scFv in CellWash (BD (Becton, Dickinson and Company) #349524) for 20 min at 4° C., washed, and bound scFv's were detected with a secondary FITC labeled anti E-tag mab (Amersham #27-9412-01). Samples were washed and analyzed on a Becton Dickinson FACSscan. […] The thin line represents the control cell line (HS-27) and the bold line the HT-1080 cells. scFv1 specifically stains the tumor cell lines with up to 10 fold higher signal compared to the control cell line.
molecule,measurement,setting,value
COC1=C2C[C@@H](C)C[C@H](OC)[C@H](O)[C@@H](C)/C=C(\C)[C@H](OC(N)=O)[C@@H](OC)/C=C\C=C(/C)C(=O)NC(=CC1=O)C2=O [geldanamycin],decrease of invasion of HT-1080 cells,HT-1080 cells [1],~35%
same,decrease of MMP2 (72 kDa gelatinase) activity,MMP2 (72 kDa gelatinase),~35%
CCn1cc(C(=O)O)c(=O)c2ccc(C)nc21 [nalidixic acid],reduction of MMP enzyme activity,[2]; zymography,no reduction of enzyme activity
same,effect on invasion of HT-1080 cells,HT-1080 cells [3],no effect on invasion
CO[C@@H]1[C@@H](OC(N)=O)[C@@H](O)[C@H](Oc2ccc3c(O)c(NC(=O)c4ccc(O)c(CC=C(C)C)c4)c(=O)oc3c2C)OC1(C)C [novobiocin],decrease of MMP activity,"[2]; highest concentration tested, zymography densitometry",> 75%
same,viability of treated cells,HT-1080 cells [4],not affected
same,effect on invasion of HT-1080 cells,HT-1080 cells [3],dose-dependent inhibition of invasion
"JB1: FITC-labeled anti-beta 1 integrin monoclonal antibody (JB1, Chemicon #MAB1963), positive control",reduction of invasion after exposure to light,HT-1080 cells [5],"significant (p<0.01, unpaired t-test) reduction of invasion"
B1,inhibition of adhesion of HT-1080 cells to Collagen S type 1,HT-1080 cells [6],50%
same,FACS signal on tumor cell line compared to control cell line,HT-1080 cells [7],up to 10 fold
